# Where two headings read alike, the source gives them in different places.
# How the values were obtained:
# BACE1 enzyme = BACE1 enzyme (Homo sapiens, UniProt P56817); test: BACE1 enzyme inhibition, Ki from kinetic data under tight-binding conditions; format: biochemical
# BACE2 enzyme = biological target: T1, BACE2 enzyme (Homo sapiens, UniProt Q9Y5Z0); test: BACE2 enzyme inhibition, Ki from kinetic data under tight-binding conditions; format: biochemical; settings: for selectivity for BACE2 over BACE1: ratio of Ki values
# T1 sequence (Q9Y5Z0 63-518): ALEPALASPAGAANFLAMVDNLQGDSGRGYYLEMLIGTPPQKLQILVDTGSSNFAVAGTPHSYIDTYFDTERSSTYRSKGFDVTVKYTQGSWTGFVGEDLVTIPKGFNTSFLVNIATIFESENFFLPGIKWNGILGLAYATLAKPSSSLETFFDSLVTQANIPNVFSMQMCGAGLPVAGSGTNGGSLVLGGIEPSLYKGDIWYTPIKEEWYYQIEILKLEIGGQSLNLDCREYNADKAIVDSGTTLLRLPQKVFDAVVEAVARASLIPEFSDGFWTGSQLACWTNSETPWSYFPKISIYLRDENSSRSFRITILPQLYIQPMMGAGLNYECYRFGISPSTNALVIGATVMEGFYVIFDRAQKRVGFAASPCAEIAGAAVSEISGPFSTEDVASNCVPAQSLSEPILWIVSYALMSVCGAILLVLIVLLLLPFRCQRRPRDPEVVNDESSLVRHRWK
# [1] = Ki (nM) BACE1, Table 1, new inhibitors 2f-j
# [2] = Ki (nM) BACE2, Table 1, new inhibitors 2f-j
# [3] = read-out: Ki (nM) BACE1, Table 2
# [4] = read-out: Ki (nM) BACE2, Table 2
# Sequence of BACE1 enzyme (P56817 46-501): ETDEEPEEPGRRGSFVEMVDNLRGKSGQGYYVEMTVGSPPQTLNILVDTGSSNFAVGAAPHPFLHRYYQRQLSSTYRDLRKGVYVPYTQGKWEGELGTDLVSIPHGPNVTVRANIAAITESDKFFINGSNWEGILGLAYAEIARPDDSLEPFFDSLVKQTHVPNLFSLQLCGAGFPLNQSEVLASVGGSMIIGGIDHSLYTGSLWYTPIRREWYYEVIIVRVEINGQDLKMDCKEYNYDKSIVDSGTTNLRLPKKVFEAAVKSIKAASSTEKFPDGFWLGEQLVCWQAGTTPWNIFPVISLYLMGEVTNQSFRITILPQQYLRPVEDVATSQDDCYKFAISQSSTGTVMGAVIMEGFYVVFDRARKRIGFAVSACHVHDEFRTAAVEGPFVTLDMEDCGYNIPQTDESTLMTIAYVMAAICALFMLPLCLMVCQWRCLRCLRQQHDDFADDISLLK
SMILES,Ki (BACE1 enzyme; [1]),Ki (BACE2 enzyme; [2]),other results
"COc1cccc(CNC[C@@H](O)[C@H](Cc2ccccc2)NC(=O)c2cc(C)cc(C(=O)N(C)C(C)c3nc(C)co3)c2)c1 (mixture of isomers) [inhibitor 3o, N^1-((2S,3R)-3-Hydroxy-4-((3-methoxybenzyl)ammo)-1-phenylbutan-2-yl)-N^3,5-dimethyl-N^3-(1-(4-methyloxazol-2-yl)ethyl)isophthalamide]",–,–,"Ki (BACE1 enzyme; read-out: Ki (nM) BACE1, Table 3): 767 nM; selectivity for BACE2 over BACE1 (BACE2 enzyme): no appreciable selectivity; Ki (BACE2 enzyme; read-out: Ki (nM) BACE2, Table 3): 801 nM"
"COC[C@H]1CCCN1C(=O)c1cccc(C(=O)N[C@@H](Cc2ccccc2)[C@H](O)CN[C@H](C(=O)NCC(C)C)[C@H](C)O)c1 [inhibitor 2f, N-((2S,3R)-3-Hydroxy-4-(((2S,3S)-3-hydroxy-1-(isobutylamino)-1-oxobutan-2-yl)amino)-1-phenylbutan-2-yl)-3-((R)-2-(methoxymethyl)pyrrolidine-1-carbonyl)benzamide]",3020 nM,1370 nM,–
"CCC[C@H](O)[C@H](NC[C@@H](O)[C@H](Cc1ccccc1)NC(=O)c1cc(C)cc(C(=O)N2CCC[C@@H]2COC)c1)C(=O)NCC(C)C [inhibitor 2g, N-((2S,3R)-3-Hydroxy-4-(((2S,3S)-3-hydroxy-1-(isobutylamino)-1-oxohexan-2-yl)amino)-1-phenylbutan-2-yl)-3-((R)-2-(methoxymethyl)pyrrolidine-1-carbonyl)-5-methylbenzamide]",6.6 nM,27.9 nM,–
"Cc1cc(C(=O)N[C@@H](Cc2ccccc2)[C@H](O)CN[C@H](C(=O)NCC(C)C)[C@H](C)O)cc(C(=O)N(C)Cc2nc(C)cs2)c1 [inhibitor 2h, N^1-((2S,3R)-3-Hydroxy-4-(((2S,3S)-3-hydroxy-1-(isobutylamino)-1-oxobutan-2-yl)amino)-1-phenylbutan-2-yl)-N^3,5-dimethyl-N^3-((4-methylthiazol-2-yl)methyl)isophthalamide]",176 nM,96.9 nM,selectivity for BACE2 over BACE1 (BACE2 enzyme): 2 fold
"CCC[C@H](O)[C@H](NC[C@@H](O)[C@H](Cc1ccccc1)NC(=O)c1cccc(C(=O)N(C)Cc2nc(C)cs2)c1)C(=O)NCC(C)C [inhibitor 2i, N^1-((2S,3R)-3-Hydroxy-4-(((2S,3S)-3-hydroxy-1-(isobutylamino)-1-oxohexan-2-yl)amino)-1-phenylbutan-2-yl)-N^3-methyl-N^3-((4-methylthiazol-2-yl)methyl)isophthalamide]",33.1 nM,51.1 nM,–
"CCC[C@H](O)[C@H](NC[C@@H](O)[C@H](Cc1ccccc1)NC(=O)c1cc(C)cc(C(=O)N(C)Cc2nc(C)cs2)c1)C(=O)NCC(C)C [inhibitor 2j, N^1-((2S,3R)-3-Hydroxy-4-(((2S,3S)-3-hydroxy-1-(isobutylamino)-1-oxohexan-2-yl)amino)-1-phenylbutan-2-yl)-N^3,5-dimethyl-N^3-((4-methylthiazol-2-yl)methyl)isophthalamide]",34.2 nM,25.3 nM,–
"COc1cccc([C@@H](NC[C@@H](O)[C@H](Cc2ccccc2)NC(=O)c2cc(C(=O)N[C@H](C)c3ccccc3)cc(N(C)S(C)(=O)=O)c2)[C@H](C)O)c1 [inhibitor 3a, N^1-((2S,3R)-3-Hydroxy-4-(((1R,2S)-2-hydroxy-1-(3-methoxyphenyl)propyl)ammo)-1-phenylbutan-2-yl)-5-(N-methylmethylsulfonamido)-N^3-((R)-1-phenylethyl)isophthalamide]",–,–,Ki (BACE1 enzyme; read-out: BACE1 Ki): 205 nM; Ki (BACE1 enzyme; [3]): 205 nM; Ki (BACE2 enzyme; read-out: BACE2 Ki): 731 nM; Ki (BACE2 enzyme; [4]): 731 nM
"COc1cccc([C@@H](NC[C@@H](O)[C@H](Cc2ccccc2)NC(=O)c2cc(C(=O)N(C)[C@H](C)c3ccccc3)cc(N(C)S(C)(=O)=O)c2)[C@H](C)O)c1 [inhibitor 3b, N^1-((2S,3R)-3-Hydroxy-4-(((1R,2S)-2-hydroxy-1-(3-methoxyphenyl)propyl)ammo)-1-phenylbutan-2-yl)-N^3-methyl-5-(N-methylmethylsulfonamido)-N^3-((R)-1-phenylethyl)isophthalamide]",–,–,Ki (BACE1 enzyme; [3]): 4850 nM; Ki (BACE2 enzyme; [4]): 479 nM
